Results reported in patent US20250032387A1, “A PERSONAL CARE OR PHARMACEUTICAL COMPOSITION” (Conopco, Inc., d/b/a UNILEVER, priority 2021, published 2025).

test system: Human epidermal keratinocytes; experiment: in vitro scratch-wound assay (keratinocyte migration); format: cell-based; conditions: primary human epidermal keratinocytes, 24 h pre-culture with active, 24 h further culture, wound area ratio divided by control (control = 1), active level wt % of medium
Experimental: The migration of epidermal keratinocytes is the basis for skin re-epithelialization during wound healing. The in vitro scratch-wound assay using monolayers of primary human epidermal keratinocytes is a straightforward and effective method to assess the migratory capacity. Human epidermal keratinocytes (lot.: Ep21012001, Biocell) were seeded into 6-well plates, at 4.5×10^5 cells per well and maintained in a 37° C. incubator in an atmosphere of 5% of carbon dioxide in EpiLife™ Keratinocyte Medium until the cells reaching 70 to 80% of confluence in the well. Then, the cells were cultured by fresh medium (as control) or fresh medium supplemented with different actives for 24 hours. The cells were scratched by a […] of pipette tip in an identical manner to simulate the formation of wound, and images for the cells were taken immediately to record the wound. The cells were cultured again by identical fresh medium or fresh medium supplemented with different actives at 37° C. for 24 hours and images for the cells were taken again. The ratio of area before and after the further culture were obtained by using the software Image-pro plus. The relative migration rates for difference actives were calculated by dividing the values of control and were summarized in Table 1.

| Compound | Relative migration rate |
| --- | --- |
| NC(=O)c1cccnc1 [A, Niacinamide] | 0.94 |
| NC(=O)c1cccnc1 [B, Niacinamide] | 1.19 |
| NC(=O)c1cccnc1 [C, Niacinamide] | 1.08 |
| Lysine carboxymethyl cysteinate | 1.15 |
| Lysine carboxymethyl cysteinate [D] | 1.04 |
